System: active oxygen responsive calcium channel (TPC1 channel) of tobacco BY-2 cells
Experiment: aequorin luminescence of tobacco BY-2 culture cells after adding reaction water (evaluation of redox activity)
Assay type: cell-based
Conditions: for suppression of the aequorin luminescence reaction induced by water containing active oxygen species: agent added to the reaction, FIG. 11
Text: In a living organism, Ca^2+ is a signal-transmitting substance which becomes a key in an information transmission path which controls metabolism and gene expression. Usually, a concentration of cytoplasm free calcium ion (hereinafter abbreviated as [Ca^2+]cyt) in live cell is maintained at low concentration and with a difference of 10^6 to 10^7 times compared to extracellular cytoplasm free calcium ion. On a cell membranes of living organisms including plants, calcium channels which constitute calcium inflow paths which are activated and open in response to a specific stimulus exist. The presence of most of calcium channels is elucidated at a gene level or at a protein level. […] As a method of nondestructively measuring the behavior of Ca^2+ in the cell, particularly, a change of [Ca^2+]cyt, a method of monitoring the change of [Ca^2+]cyt in response to various stimulations using cells to which gene of aequorin which is Ca^2+ responsive photoprotein derived from Aequorea Victoria is established. Due to this method, it is possible to monitor the change of [Ca^2+]cyt real time by observing bioluminescence. Accordingly, it is possible to determine whether or not water is turned into water having redox reaction in which the redox action is actually generated and the intracellular response is brought about. […] By evaluating effect of addition of aluminum as an ion channel blocker and effects of an active oxygen removing agent, it is possible to determine whether or not a specific active oxygen responsive calcium channel is stimulated (Kawano, T., Kadono, T., Fumoto, […]., Kuse, M. Isobe, M. Furuichi, T. and Muto, S. (2004) Aluminum as a specific inhibitor of plant TPC1 Ca^2+ channels. Biochemical and Biophysical Research Communications 324 (1): 40-45). Accordingly, by using the experimental system, it is possible to evaluate whether or not active oxygen species are present at a level where active oxygen species can stimulate calcium information transmission which is a key of various physiological action including the cell death or the gene expression in the plant cell. […] 100 ml of water having redox activity is added to 500 ml of suspension of cells in which aequorin is expressed (1:5 mixture, 600 ml in total), and CLA chemiluminescence and aequorin luminescence are measured. The luminescence intensity is marked as relative luminescence intensity (rlu). […]

| Compound | suppression of the aequorin luminescence reaction induced by water containing active oxygen species | concentration of superoxide anion radicals needed for water to have redox activity (intracellular response) (comparison of dissolved oxygen 8 mg/L and 30 mg/L samples, UV plus ultrasonic vibrations, FIG. 12) |
| --- | --- | --- |
| [Al+3] [Al^3+] | suppressed | – |
| [La+3] [La^3+] | suppressed | – |
| O=S(=O)(O)c1cc(O)c(O)c(S(=O)(=O)O)c1 [Tiron] | suppressed | – |
| [O]O [superoxide anion radicals] | – | at least 5 mM |

Source: patent publication US8889075B2, “Apparatus for producing water having redox activity” (Kitakyushu Foundation for the Advancement of Industry, …, priority 2007, dated 2014)
